Assay [1] concerns mouse skin. The assay is described as follows: Cytokines in mouse skin culture supernatant after epicutaneous treatment. As to conditions: 1.5 µg lugdunin epicutaneous 24 h; for MIP-2 concentration in skin culture supernatant: Fig 2e; for IL-1α concentration in skin culture supernatant: Fig 2d. The assay is classed as in vivo, C57BL/6 WT, MyD88-ko, 5xTLR-ko mice. The procedure:
Fig. 2 Induction of chemokine (C-X-C motif) ligand 8/macrophage inflammatory protein-2 (CXCL8/MIP-2) by lugdunin is TLR2/MyD88-dependent. a HEK-control or HEK-TLR2 cells were treated with 2 μM lugdunin for 5 h and subsequently the CXCL8 concentration in the supernatant was analyzed by LEGENDplex^TM (BioLegend). Shown is one representative experiment of three independent experiments with two technical replicates ± s.e.m. b HEK-control or HEK-TLR2 cells were treated with increasing concentrations of lugdunin for 5 h and subsequently expression of CXCL8 was analyzed and normalized to actin. Shown is one representative experiment of three independent experiments with two technical replicates ± s.e.m. c Schematic overview of the mouse experiments: 6–8-week-old female C5BL/6 WT, MyD88-knockout (ko), or 5xTLR-ko mice were epicutaneously treated with 1.5 µg lugdunin or phosphate-buffered saline (PBS) as a control. After 24 h, mice were euthanized, 4 mm skin punches were taken, and further cultured in vitro for 10 h followed by cytokine analysis of the culture supernatant by LEGENDplex^TM (BioLegend). d, e Shown are the mean concentrations of IL-1α (d) or MIP-2 (e) in the skin culture supernatant of two skin punches from four mice each ± s.e.m. Significant differences to control treatments were analyzed by an unpaired two-tailed t test (*P < 0.05; **P < 0.01; ***P < 0.001). f Representative MIP-2-stained paraffin-embedded mouse skin sections. Scale bar, 100 µM. Source data are provided as a Source Data file
For cytokine analysis from cell cultures, 10 µL of supernatant was used for cytokine analysis via the LEGENDplex^TM human inflammation panel (BioLegend). For cytokine analysis from mouse skin, 4 mm skin punches were cultured in an airlift system where only the dermis had access to medium for 10 h. Skin punches were cultured in RPMI containing 1% FCS (Biochrom/Merck Millipore), 1% penicillin and streptomycin (Gibco/Life Technologies) and 0.25 µg/mL amphotericin B (CELLnTEC). Ten microliters of a 3-fold dilution of culture supernatant was used for cytokine analysis via the LEGENDplex^TM mouse inflammation panel (BioLegend). Samples were acquired in duplicates using a BD LSRII flow cytometer (BD Biosciences) and LEGENDplex^TM Software (BioLegend).
For IL-1α analysis, 100 µL of cell culture supernatant was analyzed via ELISA (R&D Systems) according to manufacturer’s instruction. For MIP-2 analysis, 100 µL of a 5-fold dilution from skin cultures supernatant was used and analyzed via ELISA (R&D Systems) according to the manufacturer’s instruction. For LL-37 ELISA, ELISA plates (Nunc) were coated overnight at 4 °C with 100 µL of cell culture supernatant or 2-fold dilutions of LL-37 starting from 8 µg/mL. The next day, the plate was washed three times using PBS + 0.5% BSA + 0.05% Triton X-100, followed by incubation with 100 µL primary antibody against hCAP18/LL-37 (HycultBiotech, Cat#HM2071, 1:120 in PBS + 0.5% BSA + 0.05% Triton X-100) at 37 °C for 1 h. After washing, incubation with 100 µL secondary antibody (Cell Signaling, Cat#7076S, 1:3000 in PBS + 0.5% BSA + 0.05% Triton X-100) followed at 37 °C for 1 h. Subsequently, plates were washed and 100 µL TMB substrate solution (Cell Signaling) was added. Reaction was stopped with 50 µL 2 N H2SO4 and absorbance at 450 nm was measured using a Fluoroskan II (Labsystems).
To analyze the immune cell composition and cytokines in the skin, 15 µL containing 1.5 μg lugdunin or PBS as a control were epicutaneously applied for 24 h on the shaved back skin of C57BL/6 WT/MYD88-ko/5xTLR-ko mice. After 24 h, mice were euthanized and relevant skin areas or 4 mm skin punches were removed for immune cell analysis and LEGENDplex^TM (BioLegend) cytokine analysis. […]
55 c: Shown are the mean concentrations of the indicated cytokines in the supernatant of
56 the organ skin culture of two skin punches from four mice each +/- s.e.m. […]
61 Source data are provided as a Source Data file.

In assay [2] the test system is PBMCs. Put plainly: CXCL8 expression in PBMCs (qRT-PCR). The assay is classed as cell-based, human. As to conditions: 5 h, two technical replicates. The procedure:
Quantitative reverse transcription-polymerase chain reaction (qRT-PCR) was performed in 10 µL reaction volume with SYBR^TM Green PCR Master Mix (Thermo Fisher) according to the manufacturer’s instructions using a LightCycler 96 (Roche Life Science). The initial denaturation step was at 95 °C for 5 min, followed by 40 cycles with 10 s each for the denaturation step at 95 °C, the annealing at individual temperature, and the elongation at 72 °C. Primer sequences and respective annealing temperatures are listed in Supplementary Table 1.
Human PBMCs were isolated from the peripheral blood of healthy donors upon obtaining informed consent by Ficoll-Histopaque (Biochrom) gradient centrifugation. Cells were washed once in PBS and adjusted to a cell number of 1 × 10^6 mL^−1 in RPMI-1640 medium (Gibco/Life Technologies) containing 10% FBS (Biochrom/Merck Millipore). […]
31 g+h+i: HNEpCs (b), HTEpCs (c) or PBMCs (d) were treated with increasing
32 concentrations of lugdunin (grey bars) or 100 ng/mL Pam2Cys or Pam3Cys (white
33 bars) as positive controls for 5 hours and subsequently expression of CXCL8 was
34 analyzed and normalized to actin. Black bar: medium control. Shown is one
35 representative experiment of three independent experiments with two technical
36 replicates +/-s.e.m. Significant differences to control treatments were analyzed by
37 ordinary one-way ANOVA followed by Dunnett’s multiple comparisons test (*P<0.05; […]

[3] abbreviates: 5xTLR-ko mice, punches cultured 10 h, single punches.
Where [4] appears, read: MyD88-ko mice, punches cultured 10 h, single punches.

Several values for one entry are separate records, joined by “and”; a condition that tells them apart may be missing. Identical values can stand only once.

Consider Lugdunin, for which the “MIP-2 concentration in skin culture supernatant” value in assay [1] (setting [3]) is listed as “reduced”; in assay [1] (setting [4]) it was “completely impaired”; in assay [1] (WT mice, punches cultured 10 h, single punches), “induced”. In addition, the “IL-1α concentration in skin culture supernatant” value was “still able to induce” in assay [1] (setting [3]); “still able to induce” in assay [1] (setting [4]); “induced” in assay [1] (WT mice, skin punches cultured 10 h, single punches (rows)). Moreover, the CXCL8 fold induction was 0.8179 and 0.8236 in assay [2] (lugdunin 0.5 µM, sheet Supp Fig 1h); 1.223 and 1.275 in assay [2] (lugdunin 1 µM); 2.085 and 1.84 in assay [2] (lugdunin 2 µM); 2.121 and 2.305 in assay [2] (lugdunin 3 µM); 3.021 and 3.221 in assay [2] (lugdunin 5 µM); 3.494 and 3.593 in assay [2] (lugdunin 10 µM).

The record behind these values is article PMC6588697, “Lugdunin amplifies innate immune responses in the skin in synergy with host- and microbiota-derived factors” (Nature Communications, 2019).
